# Laboratory results: patent US20060069039A1, “Treatment of dyskinesia” (priority 2002, published 2006)
# Counter-ions that a name gives are not always drawn.
# Tests used:
# [1] = cited from earlier work
# [2] = system: MPTP-lesioned marmosets; assay: L-DOPA-induced dyskinesia and parkinsonian disability in the MPTP-lesioned marmoset model of Parkinson's disease; format: in vivo, marmosets (Callithrix jacchuis); conditions: topiramate oral plus L-DOPA 15 mg/kg, n=6
# From the text: The MPTP-lesioned primate represents the best animal model of Parkinson's disease and L-DOPA-induced dyskinesia, the most common form of dyskinesia encountered in the clinical situation. The pathology, symptomatology and response of symptoms to treatments and production of side effects following treatment are very similar in the MPTP-lesioned primate to those seen in Parkinson's disease patients. Thus, when untreated, MPTP-lesioned primates show parkinsonian symptoms such as reduced range of movement, reduced speed of movement (bradykinesia) and an abnormal, hunched, parkinsonian posture. […] A study was performed on six adult marmosets (Callithrix jacchuis) to assess the ability of topiramate to reduce dyskinesia, specifically L-DOPA-induced dyskinesia. The marmosets were rendered parkinsonian by subcutaneous injection of 2 mg/kg MPTP for 5 consecutive days. […] The degree of activity and disability before and after MPTP treatment were assessed using a combination of scales that measure locomotor activity, mobility, bradykinesia and posture (see below). […] Behavior was assessed for 6 hours post drug administration. […] Data were collected for each one hour time period for severity of dyskinesia and were analyzed with a Wilcoxon matched pairs test (the software used was Prism version 3.0, GraphPad Software Inc). […]
# [3] = system: essential tremor; conditions: clinical trial; cited from earlier work
smiles,measurement,setting,value
"CCN(CC)CCNC(=O)c1cc(Cl)c(N)cc1OC [Metoclopramide hydrochloride, 4-amino-5-chloro-N-[2-(diethylamino)ethyl]-2-methoxy benzamide monohydrochloride monohydrate]",solubility in water,[1]; water,freely soluble
"CC1(C)O[C@@H]2[C@@H](CO[C@@]3(COS(N)(=O)=O)OC(C)(C)O[C@@H]23)O1 [Topiramate, 2,3:4,5-bis-O-(1-methylethylidene)-β-D-fructopyranose sulfamate]",dyskinesia following topiramate and L-DOPA in comparison to L-DOPA alone,"[2]; Wilcoxon P<0.05 at 0-1 h and 1-2 h, P>0.05 at 2-3 h",less dyskinesia
same,effect on the anti-Parkinsonian action of L-DOPA (parkinsonian disability),[2]; Wilcoxon P>0.05,without major effect
same,solubility in alkaline solutions,"[1]; alkaline solutions containing sodium hydroxide or sodium phosphate, pH of 9 to 10",most soluble
same,"solubility in acetone, chloroform, dimethylsulfoxide and ethanol",[1]; organic solvents,freely soluble
same,pH of saturated solution,[1]; saturated solution,6.3
same,mean improvement in tremor,[3],25%
